This is an account of results in article PMC6949113, “Preclinical evaluation of AT-527, a novel guanosine nucleotide prodrug with potent, pan-genotypic activity against hepatitis C virus” (PLoS ONE, 2020).

Series [1] in a line: Rat pharmacokinetic study, plasma. The class given is in vivo, Sprague-Dawley rat. Particulars: for plasma concentration, individual rats: AT-527 500 mg/kg oral, male 1-3, female 7-9, BQL: <0.0017 AT-511, <0.0022 M1, <0.0032 AT-273, M4.
Another series is described as follows: Monkey PK study, plasma.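 As to plasma concentration: concentrations in nmol/mL.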 The class given is in vivo, cynomolgus monkey. Particulars: for plasma concentration: male cynomolgus monkeys; for AUC(0-t) / Cmax / MRT last / Tmax: male, cynomolgus, cynomolgus monkey, in vivo, po. The source says:
(§1) Monkey PK study. Male non-naïve cynomolgus monkeys were obtained from Hainan Jingang Laboratory Animal Co., Ltd. (Hainan, China), group housed during the 5-day acclimation period or individually housed during the study in stainless steel mesh cages, provided ad libitum access to RO water, fed twice daily (~120 g Certified Monkey Diet daily; Beijing Vital Keao Feed Co., Ltd., Beijing, China) and given daily treats of fresh fruit. Additional environmental enrichment included classical music and cartoons. Three groups of 5 monkeys each were administered 30, 100 or 300 mg/kg AT-527 as a powder filled in empty porcine hard gelatin capsules (size 0). The monkeys were fasted overnight prior to dosing and fed 4 h after dosing. Three dosages were selected to provide assessments of dose proportionality, the top two representing potential doses for a repeated oral dose toxicity study in monkeys, and the lowest predicted to be more therapeutically relevant. A pill gun was used to place the capsule beyond the root of the animals’ tongues and their mouths were held loosely closed for approximately 30 sec to allow them to move the jaw and swallow the capsule. Immediately following capsule administration, 20 mL of water was given by mouth and then the mouth was opened to ensure the capsule was swallowed. Blood samples (~0.6 mL) were collected up to 72 h from three animals per dose group, and up to 4 h from the remaining two animals in each group, at the same time points described for rats. […] Blood samples were collected with a syringe from a peripheral blood vessel from restrained, non-sedated animals, immediately transferred to pre-chilled tubes containing ~1 mg K2EDTA•2H20 and 20 μL of 5 mM dichlorvos solution, mixed and placed on ice until plasma was prepared by centrifugation as described for rats. Immediately after centrifugation, plasma samples were extracted with 4 volumes ISS2, and the supernatants were clarified by centrifugation (12,000 rpm, 10 min, 4°C) and stored at ≤ -60°C until analyzed by LC-MS/MS as described below. After the 4-hr blood collection, two monkeys per dose group were anesthetized with intravenous injection of pentobarbital sodium (60 mg/kg) and then euthanized as described for rats. […] All analytes were quantitated by LC-MS/MS as described below.
LC-MS/MS analysis of rat and monkey plasma and tissue homogenate supernatants. For the analysis of AT-511 in rat plasma, aliquots were extracted with 10 volumes ISS2. The supernatants were clarified by centrifugation (4000 rpm for 10 min at 4°C) and 3 μL samples were injected onto an Acuity BEH C18 1.7 μm, 2.1 × 50 mm column and a Sciex API 4000 mass spectrometer (ESI positive ion, MRM mode). Mobile phases A (0.025% formic acid (FA) and 1 mM ammonium acetate (AA) in 5% ACN in water) and B (0.025% FA and 1 mM AA in 95% ACN in water) were used to elute samples (3 μL) at 0.6 mL/min with 10% B for 0.3 min followed by linear gradients to 60% B over 0.6 min and to 90% B over 0.2 min, and ending with 90% B for 0.4 min.
PK data analysis. […] The linear/log trapezoidal rule was applied in obtaining the PK parameters.

Series [2] can be described thus: Monkey PK study, liver and heart tissue levels. Format: in vivo, cynomolgus monkey. Particulars: monkey; for Liver/Heart Ratio: 4 h; for Mean Concentration at 4 hr Postdose, Heart: footnoted values extrapolated below LLOQ.
Text: as §1
For the analysis of AT-9010 in rat tissue homogenate supernatant, aliquots were diluted 1:2 with water and injected onto an Agilent Zorbax Extend C18 5 μm, 2.1 × 50 mm column and a Sciex API 4000 mass spectrometer (ESI positive ion, MRM mode). Mobile phases A (0.001% ammonia and 0.18 mM DBAA in water (1:1, v/v) and B (10 mM dimethylhexylamine (DMHA) and 3 mM AA in 50% ACN in water) were used to elute samples (60 μL) at 0.7 mL/min with 2% B for 0.8 min followed by a linear gradient to 30% B over 0.4 min, isocratic elution at 30% B for 0.4 min, a linear gradient to 95% B over 0.4 min, and ending with 95% B for 0.4 min. The analysis of AT-9010 in monkey tissue homogenate supernatant was the same except the sample injection volume was 20 μL. Attempts to measure tissue levels of other potentially formed TPs, including 2,6-diaminopurine-2’-F-2’-C-methylribosyl-5’-triphosphate and 2-amino-6-methylaminopurine-2’-F-2’-C-methylribosyl-5’-triphosphate (M2-TP), also used this method.
For the analysis of M2 and M3 in monkey tissue homogenate supernatant, aliquots were diluted 1:3 with water and injected onto an Acuity HSS T3 1.8 μm, 2.1 × 50 mm column and a Sciex API 6500 mass spectrometer (ESI positive ion, MRM mode). Mobile phases A (0.3% FA and 10 mM AA in water and B (0.3% FA and 10 mM AA in 95% ACN in water) were used to elute samples (1 μL) at 0.6 mL/min with 0% B for 0.4 min followed by linear gradients to 30% B over 0.5 min and to 95% B over 0.2 min, ending with isocratic elution at 95% B for 0.4 min.

Setting [3] is: both sexes, Sprague-Dawley, rat, in vivo, po, 500 mg/kg.

Marks after values point to notes of the source that are not given here.

For the compound `CNc1nc(N)nc2c1ncn2[C@@H]1O[C@H](CO[P@@](=O)(N[C@@H](C)C(=O)OC(C)C)Oc2ccccc2)[C@@H](O)[C@@]1(C)F` [AT-527], the “unusual or adverse clinical signs” value in series [1] (rats, single oral 500 mg/kg) is recorded as “no such signs noted”; in “Monkey PK study, plasma” (monkeys, single oral 30, 100 or 300 mg/kg) it was “no such signs noted”.

`CNc1nc(N)nc2c1ncn2[C@@H]1O[C@H](CO[P@](=O)(O)N[C@@H](C)C(=O)O)[C@@H](O)[C@@]1(C)F` [M1]: the “plasma concentration, individual rats” value in series [1] (48.0 h) and in series [1] (72.0 h) was “BQL” throughout. Moreover, the AUC(0-t) in series [1] (setting [3]) is 77.9 ± 20.3 µM·h; in the series “Monkey PK study, plasma” (30 mg/kg) it was 5.44 ± 2.76 µM·h; in “Monkey PK study, plasma” (100 mg/kg), 25.5 ± 10.1 µM·h; in the series “Monkey PK study, plasma” (300 mg/kg) it was 35.6 ± 26.4 µM·h. Further, the Cmax in series [1] (setting [3]) is 40.8 ± 9.7 µM; in “Monkey PK study, plasma” (30 mg/kg), 0.94 ± 0.61 µM; in “Monkey PK study, plasma” (100 mg/kg), 4.24 ± 2.84 µM; in “Monkey PK study, plasma” (300 mg/kg) it was 4.44 ± 4.74 µM. Moreover, the MRT last in series [1] (setting [3]) is 2.54 ± 0.41 h; in “Monkey PK study, plasma” (30 mg/kg), 7.06 ± 1.07 h; in the series “Monkey PK study, plasma” (100 mg/kg) it was 7.22 ± 0.48 h; in “Monkey PK study, plasma” (300 mg/kg) it was 11.4 ± 3.6 h. In addition, the Tmax in series [1] (setting [3]) was determined as 0.58 ± 0.14 h; in the series “Monkey PK study, plasma” (30 mg/kg), 4.67 ± 2.31 h; in “Monkey PK study, plasma” (300 mg/kg) it was 4.67 ± 1.16 h. Also, the plasma concentration result was “BQL” in “Monkey PK study, plasma” (single oral AT-527 30 mg/kg, 0.500 h, monkey 1); “BQL” in “Monkey PK study, plasma” (single oral AT-527 30 mg/kg, 48.0 h, monkey 1); “BQL” in “Monkey PK study, plasma” (single oral AT-527 30 mg/kg, 48.0 h, monkey 2); “BQL” in “Monkey PK study, plasma” (single oral AT-527 30 mg/kg, 72.0 h, monkey 1); “BQL” in “Monkey PK study, plasma” (single oral AT-527 30 mg/kg, 72.0 h, monkey 2); “BQL” in the series “Monkey PK study, plasma” (single oral AT-527 30 mg/kg, 72.0 h, monkey 3). Also, the plasma concentration entry in “Monkey PK study, plasma” (single oral AT-527 100 mg/kg, 48.0 h, monkey 1) is listed as “BQL”; in the series “Monkey PK study, plasma” (single oral AT-527 100 mg/kg, 48.0 h, monkey 2) it was “BQL”; in “Monkey PK study, plasma” (single oral AT-527 100 mg/kg, 72.0 h, monkey 1), “BQL”; in the series “Monkey PK study, plasma” (single oral AT-527 100 mg/kg, 72.0 h, monkey 2), “BQL”; in “Monkey PK study, plasma” (single oral AT-527 100 mg/kg, 72.0 h, monkey 3), “BQL”; in the series “Monkey PK study, plasma” (single oral AT-527 300 mg/kg, 0.500 h, monkey 1) it was “BQL”. The plasma concentration entry is recorded as “BQL” in the series “Monkey PK study, plasma” (single oral AT-527 300 mg/kg, 48.0 h, monkey 2); “BQL” in the series “Monkey PK study, plasma” (single oral AT-527 300 mg/kg, 48.0 h, monkey 3); “BQL” in the series “Monkey PK study, plasma” (single oral AT-527 300 mg/kg, 72.0 h, monkey 1); “BQL” in “Monkey PK study, plasma” (single oral AT-527 300 mg/kg, 72.0 h, monkey 2); “BQL” in the series “Monkey PK study, plasma” (single oral AT-527 300 mg/kg, 72.0 h, monkey 3). The entries for the “Liver/Heart Ratio” value in series [2] (AT-527 30 mg/kg oral), in series [2] (AT-527 100 mg/kg oral) and in series [2] (AT-527 300 mg/kg oral) were 3.7, 3.6 and 5.6, respectively.

On to `CNc1nc(N)nc2c1ncn2[C@@H]1O[C@H](COP(=O)(O)O)[C@@H](O)[C@@]1(C)F` [M2], for which, in series [2] (AT-527 30 mg/kg oral), the “Mean Concentration at 4 hr Postdose, Liver” value (“Mean Concentration … Liver” below) is 103 pmol/g; the “Liver/Heart Ratio” value is given as 19^a; the “Mean Concentration at 4 hr Postdose, Heart” value (shortened to “Mean Concentration … Heart”) is 5.4^a pmol/g. In series [2] (AT-527 100 mg/kg oral), the “Mean Concentration … Liver” value was 479 pmol/g; the “Liver/Heart Ratio” value was 48^a; the “Mean Concentration … Heart” value is 9.9^a pmol/g. In addition, in series [2] (AT-527 300 mg/kg oral), the “Mean Concentration … Liver” value is on record as 87.9 pmol/g; the “Liver/Heart Ratio” value is listed as 13^a; the “Mean Concentration … Heart” value is given as 6.6^a pmol/g.

For the compound `C[C@@]1(F)[C@H](O)[C@@H](COP(=O)(O)O)O[C@H]1n1cnc2c(=O)[nH]c(N)nc21` [M3], in series [2] (AT-527 30 mg/kg oral), the “Mean Concentration … Liver” value is on record as 78.8 pmol/g; the “Liver/Heart Ratio” value is recorded as 11^a; the “Mean Concentration … Heart” value is recorded as 7.5^a pmol/g. In series [2] (AT-527 100 mg/kg oral), the “Mean Concentration … Liver” value worked out at 203 pmol/g; the “Liver/Heart Ratio” value is 26^a; the “Mean Concentration … Heart” value is 7.9^a pmol/g. In addition, in series [2] (AT-527 300 mg/kg oral), the “Mean Concentration … Liver” value stood at 1180 pmol/g; the “Liver/Heart Ratio” value was found to be 72; the “Mean Concentration … Heart” value is listed as 16.5 pmol/g.
